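Compound exposure: 48 hours, 5 concentrations, 96-well plates. Here, GI50 denotes the concentration required for 50% inhibition of growth. Definition used: TGI = concentration required for complete inhibition of growth.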
What was measured:
Assay in all cases: NCI tumour cell line growth inhibition, 48 h
[1] = tested on: 786-0 renal
[2] = tested on: MDA-MB-231 breast
[3] = tested on: MCF7 breast
[4] = tested on: SF-539 CNS
[5] = tested on: TK-10 renal
[6] = tested on: RXF 393 renal
[7] = tested on: T-47D breast
[8] = tested on: EKVX NSCLC
[9] = tested on: SF-295 CNS
[10] = tested on: OVCAR-4 ovarian
[11] = tested on: HOP-62 NSCLC
[12] = tested on: HOP-92 NSCLC
[13] = tested on: COLO 205 colon
[14] = tested on: HL-60(TB) leukemia
[15] = tested on: SK-OV-3 ovarian
[16] = tested on: SNB-75 CNS
[17] = tested on: MDA-MB-435
[18] = tested on: OVCAR-8 ovarian
[19] = tested on: NCI/ADR-RES ovarian
[20] = tested on: M14 melanoma
[21] = tested on: OVCAR-5 ovarian
[22] = tested on: K-562 leukemia
[23] = tested on: MALME-3M melanoma
[24] = tested on: UACC-257 melanoma
[25] = tested on: SW-620 colon
[26] = tested on: DU-145 prostate
[27] = tested on: NCI-H23 lung
[28] = tested on: BT-549 breast
[29] = tested on: HCT-116 colon
[30] = tested on: SK-MEL-2 melanoma
[31] = tested on: RPMI-8226 leukemia
[32] = tested on: NCI-H522 lung
[33] = tested on: HS 578T breast
[34] = tested on: OVCAR-3 ovarian
[35] = tested on: SN12C renal
[36] = tested on: UO-31 renal
[37] = tested on: SNB-19 CNS
[38] = tested on: HT29 colon
[39] = tested on: IGROV1 ovarian
[40] = tested on: A549 NSCLC
[41] = tested on: LOX IMVI melanoma
[42] = tested on: SR leukemia
[43] = tested on: SK-MEL-28 melanoma
[44] = tested on: SK-MEL-5 melanoma
[45] = tested on: HCT-15 colon
[46] = tested on: NCI-H460 lung
[47] = tested on: MOLT-4 leukemia
[48] = tested on: CCRF-CEM leukemia
[49] = tested on: U251 CNS
[50] = tested on: UACC-62 melanoma
[51] = tested on: NCI-H226 lung
[52] = tested on: A498 renal
[53] = tested on: PC-3 prostate
[54] = tested on: CAKI-1 renal
[55] = tested on: SF-268 CNS
[56] = tested on: HCC-2998 colon
[57] = tested on: KM12 colon
[58] = tested on: ACHN renal

COc1cc(Nc2cc(O)c3c(=O)cc(-c4ccccc4)oc3c2)cc(OC)c1
GI50 [1]: 1.34 µM | TGI [1]: 21.9 µM | GI50 [2]: 0.964 µM | TGI [2]: 18.4 µM | GI50 [3]: 0.0357 µM | TGI [3]: > 100 µM | GI50 [4]: 0.338 µM | TGI [4]: 1.93 µM | GI50 [5]: 4.94 µM | TGI [5]: 46.6 µM | GI50 [6]: 0.329 µM | TGI [6]: 1.83 µM | GI50 [7]: 0.251 µM | TGI [7]: > 100 µM | GI50 [8]: 0.769 µM | TGI [8]: > 100 µM | GI50 [9]: 0.389 µM | TGI [9]: 8.33 µM | GI50 [10]: 8.61 µM | TGI [10]: 41.9 µM | GI50 [11]: 0.795 µM | TGI [11]: 20.9 µM | GI50 [12]: 0.944 µM | TGI [12]: 17.7 µM | GI50 [13]: 4.68 µM | TGI [13]: > 100 µM | GI50 [14]: 0.355 µM | GI50 [15]: 0.548 µM | TGI [15]: 18.6 µM | GI50 [16]: 0.193 µM | TGI [16]: 0.75 µM | GI50 [17]: 0.147 µM | TGI [17]: 0.498 µM | GI50 [18]: 0.9 µM | TGI [18]: 23.9 µM | GI50 [19]: 0.437 µM | TGI [19]: 25 µM | GI50 [20]: 0.466 µM | TGI [20]: > 100 µM | GI50 [21]: 1.29 µM | TGI [21]: > 47.5 µM | GI50 [22]: 0.311 µM | TGI [22]: > 100 µM | GI50 [23]: 0.754 µM | TGI [23]: > 100 µM | GI50 [24]: 39.1 µM | TGI [24]: > 100 µM | GI50 [25]: 0.377 µM | TGI [25]: > 100 µM | GI50 [26]: 0.476 µM | TGI [26]: 20.9 µM | GI50 [27]: 0.922 µM | TGI [27]: 40 µM | GI50 [28]: 0.651 µM | TGI [28]: > 52.3 µM | GI50 [29]: 0.407 µM | TGI [29]: > 100 µM | GI50 [30]: 0.537 µM | TGI [30]: 40.4 µM | GI50 [31]: 0.471 µM | TGI [31]: > 100 µM | GI50 [32]: 0.203 µM | TGI [32]: 4.39 µM | GI50 [33]: 0.338 µM | GI50 [34]: 0.274 µM | TGI [34]: 1.64 µM | GI50 [35]: 0.736 µM | TGI [35]: 75.5 µM | GI50 [36]: 0.763 µM | TGI [36]: 30.7 µM | GI50 [37]: 0.533 µM | TGI [37]: 22.8 µM | GI50 [38]: 3.33 µM | TGI [38]: > 36.9 µM | GI50 [39]: 0.409 µM | TGI [39]: 32.4 µM | GI50 [40]: 0.788 µM | TGI [40]: 97.3 µM | GI50 [41]: 0.581 µM | TGI [41]: > 100 µM | GI50 [42]: 0.253 µM | TGI [42]: > 100 µM | GI50 [43]: 2.84 µM | TGI [43]: > 100 µM | GI50 [44]: 0.169 µM | TGI [44]: 9.97 µM | GI50 [45]: 0.104 µM | TGI [45]: > 100 µM | GI50 [46]: 0.39 µM | TGI [46]: > 35.3 µM | GI50 [47]: 0.595 µM | TGI [47]: > 100 µM | GI50 [48]: 0.411 µM | TGI [48]: > 100 µM | GI50 [49]: 0.484 µM | TGI [49]: 18.3 µM | GI50 [50]: 0.387 µM | TGI [50]: > 37.4 µM | GI50 [51]: 2.57 µM | TGI [51]: 48 µM | GI50 [52]: 0.351 µM | TGI [52]: 9.03 µM | GI50 [53]: 0.815 µM | TGI [53]: > 52.1 µM | GI50 [54]: 0.335 µM | TGI [54]: 16.8 µM | GI50 [55]: 0.909 µM | TGI [55]: 30.9 µM | GI50 [56]: 2.31 µM | TGI [56]: > 54 µM | GI50 [57]: 0.282 µM | TGI [57]: > 39.2 µM | GI50 [58]: 0.628 µM | TGI [58]: > 100 µM

COc1cc2c(Oc3ccc4[nH]c(C)cc4c3F)ncnc2cc1OCCCN1CCCC1
GI50 [1]: 3.57 µM | TGI [1]: 13.3 µM | GI50 [2]: 2.54 µM | TGI [2]: 7.58 µM | GI50 [3]: 3.79 µM | TGI [3]: 18.5 µM | GI50 [4]: 0.46 µM | TGI [4]: 2.47 µM | GI50 [5]: 1.57 µM | TGI [5]: 6.98 µM | GI50 [6]: 1.07 µM | TGI [6]: 3.31 µM | GI50 [7]: 1.8 µM | TGI [7]: 4.72 µM | GI50 [8]: 6.07 µM | TGI [8]: 22.1 µM | GI50 [9]: 2.81 µM | TGI [9]: 13.2 µM | GI50 [10]: 1.38 µM | TGI [10]: 8.99 µM | GI50 [11]: 2.03 µM | TGI [11]: 10.5 µM | GI50 [12]: 0.761 µM | TGI [12]: 5.2 µM | GI50 [13]: 1.83 µM | TGI [13]: 3.58 µM | GI50 [14]: 2.04 µM | TGI [14]: 4.37 µM | GI50 [15]: 5.53 µM | TGI [15]: 19 µM | GI50 [16]: 0.959 µM | TGI [16]: 5.09 µM | GI50 [17]: 2.75 µM | TGI [17]: 8.98 µM | GI50 [18]: 3.88 µM | TGI [18]: 15.6 µM | GI50 [19]: 9.69 µM | TGI [19]: 24.7 µM | GI50 [20]: 1.88 µM | TGI [20]: 3.78 µM | GI50 [21]: 4.72 µM | TGI [21]: 19.5 µM | GI50 [22]: 2.15 µM | TGI [22]: 7.44 µM | GI50 [23]: 2.48 µM | TGI [23]: 7.02 µM | GI50 [24]: 1.75 µM | TGI [24]: 3.53 µM | GI50 [25]: 3.77 µM | TGI [25]: 14.7 µM | GI50 [26]: 4.66 µM | TGI [26]: 16 µM | GI50 [27]: 5.17 µM | TGI [27]: 22.7 µM | GI50 [28]: 2.98 µM | TGI [28]: 10.8 µM | GI50 [29]: 3.96 µM | TGI [29]: 14.7 µM | GI50 [30]: 3.84 µM | TGI [30]: 10.3 µM | GI50 [31]: 3.63 µM | TGI [31]: 10.7 µM | GI50 [32]: 2.33 µM | TGI [32]: 5.99 µM | GI50 [33]: 1.32 µM | TGI [33]: 6.89 µM | GI50 [34]: 2.25 µM | TGI [34]: 7.56 µM | GI50 [35]: 3.84 µM | TGI [35]: 19.9 µM | GI50 [36]: 0.544 µM | TGI [36]: 5.64 µM | GI50 [37]: 6.47 µM | TGI [37]: 22.2 µM | GI50 [38]: 1.7 µM | TGI [38]: 4.09 µM | GI50 [39]: 1.45 µM | TGI [39]: 14.2 µM | GI50 [40]: 3.07 µM | TGI [40]: 13 µM | GI50 [41]: 1.62 µM | TGI [41]: 4.31 µM | GI50 [42]: 3.06 µM | TGI [42]: 15 µM | GI50 [43]: 2.57 µM | TGI [43]: 6.68 µM | GI50 [44]: 1.62 µM | TGI [44]: 3.17 µM | GI50 [45]: 3.16 µM | TGI [45]: 15.2 µM | GI50 [46]: 3.29 µM | TGI [46]: 11.6 µM | GI50 [47]: 2.55 µM | TGI [47]: 13.8 µM | GI50 [48]: 3.74 µM | TGI [48]: 16.8 µM | GI50 [49]: 1.43 µM | TGI [49]: 6.99 µM | GI50 [50]: 2.77 µM | TGI [50]: 6.73 µM | GI50 [51]: 0.675 µM | TGI [51]: 9.15 µM | GI50 [52]: 0.129 µM | TGI [52]: 0.72 µM | GI50 [53]: 4.63 µM | TGI [53]: 17.5 µM | GI50 [54]: 2.79 µM | TGI [54]: 13.9 µM | GI50 [55]: 4.06 µM | TGI [55]: 16.6 µM | GI50 [56]: 3.77 µM | TGI [56]: 11.8 µM | GI50 [57]: 4.33 µM | TGI [57]: 15.3 µM | GI50 [58]: 1.96 µM | TGI [58]: 14.9 µM
